# Test results published in ChEMBL document CHEMBL5260825, “Chemical Constituents of Bryophytes: Structures and Biological Activity” (J Nat Prod, 2018).
# Experiments:
# [1] = test system: Trypanosoma brucei brucei; assay: Antitrypanosomal activity against bloodstream Trypanosoma brucei brucei assessed as parasite growth inhibition measured after 72 hrs by alamar blue assay; type: functional, organism-based
# [2] = test system: RAW264.7; assay: Inhibition of LPS-induced NO production in mouse RAW264.7 cells incubated for 24 hrs by Griess reagent based assay; type: functional, cell-based; details: RAW264.7, 24 h
# [3] = test system: RPMI-7951; assay: Antiproliferative activity against human RPMI-7951 cells assessed as cell growth inhibition; type: functional; details: read-out: ED50 (the source's name)
# [4] = test system: A549; assay: Antiproliferative activity against human A549 cells assessed as cell growth inhibition; type: functional; details: read-out: ED50 (the source's name)
# [5] = biological target: Cyclooxygenase (Homo sapiens, UniProt P35354+P23219); assay: Inhibition of COX (unknown origin); type: protein assay
# [6] = biological target: T1, Polyunsaturated fatty acid 5-lipoxygenase (Homo sapiens) (UniProt P09917); assay: Inhibition of ALOX5 (unknown origin) assessed as reduction in calmodulin level
# T1 sequence (whole entry): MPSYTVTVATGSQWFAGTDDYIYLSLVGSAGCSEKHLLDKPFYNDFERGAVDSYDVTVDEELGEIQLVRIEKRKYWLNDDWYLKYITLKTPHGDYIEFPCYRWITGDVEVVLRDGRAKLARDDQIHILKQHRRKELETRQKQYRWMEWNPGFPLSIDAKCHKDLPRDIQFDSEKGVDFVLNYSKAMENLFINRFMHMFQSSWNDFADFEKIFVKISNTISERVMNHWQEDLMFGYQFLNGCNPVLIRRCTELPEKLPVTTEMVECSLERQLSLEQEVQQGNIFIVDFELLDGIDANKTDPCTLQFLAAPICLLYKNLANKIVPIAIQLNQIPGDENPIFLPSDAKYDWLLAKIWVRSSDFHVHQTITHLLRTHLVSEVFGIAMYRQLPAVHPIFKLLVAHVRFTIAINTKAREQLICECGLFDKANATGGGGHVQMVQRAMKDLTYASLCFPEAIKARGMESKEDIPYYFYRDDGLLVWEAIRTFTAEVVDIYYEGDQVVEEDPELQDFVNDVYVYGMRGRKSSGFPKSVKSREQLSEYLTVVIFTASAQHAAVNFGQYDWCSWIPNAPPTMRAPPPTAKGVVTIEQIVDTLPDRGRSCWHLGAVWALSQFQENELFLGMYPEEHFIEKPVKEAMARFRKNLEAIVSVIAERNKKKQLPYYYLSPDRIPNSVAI
# [7] = biological target: T2, Alpha glucosidase (Homo sapiens) (UniProt O43451+P10253+P14410+Q2M2H8); assay: Inhibition of alpha glucosidase (unknown origin) at 0.4 mM relative to control; type: protein assay
# [8] = biological target: T2, Alpha glucosidase (Homo sapiens); assay: Inhibition of alpha glucosidase (unknown origin) at 1 mM relative to control; type: protein assay
# [9] = Antiproliferative activity against human Lu1 cells assessed as cell growth inhibition; type: functional, cell-based
# [10] = test system: KB; assay: Antiproliferative activity against human KB cells assessed as cell growth inhibition; type: functional, cell-based
# [11] = test system: Streptococcus mutans; assay: Antibacterial activity against Streptococcus mutans assessed as lethal dose; type: functional; details: read-out: LD50 (the source's name)
# [12] = Antiproliferative activity against human KBV cells assessed as cell growth inhibition; type: functional, cell-based
# [13] = test system: LNCaP; assay: Antiproliferative activity against human LNCaP cells assessed as cell growth inhibition; type: functional, cell-based
# [14] = test system: ZR-75-1; assay: Antiproliferative activity against human ZR-75-1 cells assessed as cell growth inhibition; type: functional, cell-based
# [15] = test system: Candida albicans; assay: Antifungal activity against Candida albican ATCC10231 assessed as inhibition of fungal growth by measuring minimal inhibitory quantity by microdilution method; type: functional
# [16] = test system: Candida albicans; assay: Antifungal activity against Candida albican ATCC10231 assessed as inhibition of fungal growth by microdilution method; type: functional
# [17] = species on record: Rattus norvegicus; assay: Inhibition of iron-induced lipid peroxidation in rat liver microsomes in presence of NADPH; type: functional, Microsome
# [18] = species on record: Homo sapiens; assay: Antagonist activity at vasopressin (unknown origin); details: filed as antagonist
# [19] = test system: HT-29; assay: Antiproliferative activity against human HT-29 cells assessed as cell growth inhibition; type: functional, cell-based
# [20] = test system: DU-145; assay: Antiproliferative activity against human DU-145 cells assessed as cell growth inhibition; type: functional
# [21] = test system: K562; assay: Antiproliferative activity against human K562 cells assessed as cell growth inhibition; type: functional
# [22] = test system: M14; assay: Antiproliferative activity against human M14 cells assessed as cell growth inhibition; type: functional
# [23] = test system: MCF7; assay: Antiproliferative activity against human MCF7 cells assessed as cell growth inhibition; type: functional, cell-based
# [24] = Cytotoxicity against mouse 3T3 cells assessed as reduction in cell viability; type: toxicity, cell-based; details: NIH3T3 cells
# [25] = test system: Trichostrongylus colubriformis; assay: Anthelmintic activity against third stage larvae of Trichostrongylus colubriformis at 0.6 mg/ml by microscope based analysis relative to control; type: functional
# [26] = test system: Trichostrongylus colubriformis; assay: Anthelmintic activity against third stage larvae of Trichostrongylus colubriformis by microscope based analysis; type: functional, organism-based
# [27] = test system: HepG2; assay: Antiproliferative activity against human HepG2 cells assessed as cell growth inhibition; type: functional, cell-based
# [28] = Inhibition of superoxide anion radical release in rabbit polymorphonuclear leucocytes; type: functional, cell-based; details: Oryctolagus cuniculus, Polymorphonuclear neutrophil
# [29] = test system: Peritoneal macrophage cell; assay: Inhibition of superoxide anion radical release in guinea pig peritoneal macrophages; type: functional, cell-based; details: Cavia porcellus
# [30] = test system: Trichostrongylus colubriformis; assay: Anthelmintic activity against third stage larvae of Trichostrongylus colubriformis at 0.7 mg/ml by microscope based analysis relative to control; type: functional
# [31] = biological target: Procathepsin L (Homo sapiens) (UniProt P07711); assay: Inhibition of Cathepsin L (unknown origin) at 0.00001 M relative to control; details: dose 10 µM
# [32] = biological target: Cathepsin B (Homo sapiens) (UniProt P07858); assay: Inhibition of Cathepsin B (unknown origin) at 0.00001 M relative to control; details: dose 10 µM
# [33] = test system: Candida albicans; assay: Antifungal activity against Candida albicans assessed as inhibition of fungal growth by MTT assay; type: functional
# [34] = test system: Human immunodeficiency virus 1; assay: Antiviral activity against HIV-1; type: functional, organism-based
# [35] = biological target: DNA polymerase beta (Homo sapiens, UniProt P06746); assay: Inhibition of DNA polymerase beta (unknown origin)
# [36] = test system: Botrytis cinerea; assay: Antifungal activity against Botrytis cinerea assessed as inhibition of microbial growth by microtiter plate based analysis; type: functional, organism-based
# [37] = test system: Phytophthora infestans; assay: Antifungal activity against Phytophthora infestans assessed as inhibition of microbial growth by microtiter plate based analysis; type: functional, organism-based
# [38] = test system: Cladosporium cucumerinum; assay: Antifungal activity against Cladosporium cucumerinum assessed as inhibition of microbial growth by microtiter plate based analysis; type: functional, organism-based
# [39] = test system: Zymoseptoria tritici; assay: Antifungal activity against Zymoseptoria tritici assessed as inhibition of microbial growth by microtiter plate based analysis; type: functional, organism-based
# [40] = test system: Pyricularia oryzae; assay: Antifungal activity against Pyricularia oryzae assessed as inhibition of microbial growth; type: functional, organism-based
# [41] = test system: Cladosporium cucumerinum; assay: Antifungal activity against Cladosporium cucumerinum assessed as inhibition of microbial growth by bioautographic TLC method; type: functional
# [42] = test system: Candida albicans; assay: Antifungal activity against Candida albicans assessed as inhibition of fungal growth by bioautographic TLC method; type: functional
# [43] = test system: Candida albicans; assay: Antifungal activity against Candida albican assessed as reduction in fluconazole MIC by microdilution method; type: functional
# [44] = biological target: T1, Polyunsaturated fatty acid 5-lipoxygenase (Homo sapiens); assay: Inhibition of ALOX5 (unknown origin) at 0.000001 M relative to control; details: dose 1 µM
# [45] = biological target: Calmodulin-1 (Homo sapiens) (UniProt P0DP23); assay: Inhibition of calmodulin (unknown origin)
# [46] = biological target: Prothrombin (Homo sapiens, UniProt P00734); assay: Inhibition of thrombin (unknown origin)
# [47] = Antiplatelet activity against arachidonate-induced rabbit platelet assessed as inhibition of platelet aggregation at 100 ug/ml relative to control; type: functional; details: Oryctolagus cuniculus
# [48] = Antiplatelet activity against collagen-induced rabbit platelet assessed as inhibition of platelet aggregation at 100 ug/ml relative to control; type: functional; details: Oryctolagus cuniculus
# [49] = Antiplatelet activity against arachidonate-induced rabbit platelet assessed as inhibition of platelet aggregation at 50 ug/ml relative to control; type: functional; details: Oryctolagus cuniculus
# Procathepsin L (Homo sapiens), sequence (P07711 114-333 limits assumed): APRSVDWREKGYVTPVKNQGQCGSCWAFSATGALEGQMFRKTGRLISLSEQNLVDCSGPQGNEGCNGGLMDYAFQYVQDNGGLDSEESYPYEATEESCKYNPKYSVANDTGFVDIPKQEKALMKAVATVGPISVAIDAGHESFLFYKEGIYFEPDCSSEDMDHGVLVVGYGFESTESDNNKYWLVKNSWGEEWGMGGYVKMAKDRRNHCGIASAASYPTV
smiles,measurement,setting,value
COc1cc([C@@]2(C)CCCC2(C)C)cc(O)c1C,IC50,[1],0.93 µg/mL
same,IC50,[2],4.1 µM
COc1cc(OC)c2c3c1-c1c(O)cccc1[C@@H]1Oc4ccccc4[C@@H](C[C@@H]2OC)[C@@H]31,EC50,[3],1 µg/mL
same,EC50,[4],1 µg/mL
C=C(C)[C@H]1Cc2c(CCc3ccccc3)cc(O)c(O)c2O1,IC50,[1],0.44 µg/mL
same,IC50,[5],26.2 µM
same,ID50,[6],2 µg/mL
Oc1ccc2cc1Oc1ccc(cc1)CCc1cccc(O)c1Oc1cccc(c1)CC2,inhibition,[7],100%
same,inhibition,[8],52.2%
CC(C)=CCC[C@]1(C)CCC[C@]2(C)[C@@H](C=O)C(C=O)=CC[C@@H]12,IC50,[9],5.7 µM
same,IC50,[10],3.2 µM
same,LC50,[11],8 µg/mL
same,IC50,[12],2.7 µM
same,IC50,[13],5.7 µM
same,IC50,[14],5.7 µM
Oc1ccc2c(c1)CCc1ccc(O)c(c1)Oc1ccc(cc1)CCc1cccc(c1)O2 [PTYCHANOL A],MIC,[15],0.25 µg
same,MIC,[16],16 µg/mL
Oc1ccc2cc1Oc1ccc(cc1)CCc1cc(O)c(O)c(c1)Oc1cccc(c1)CC2,IC50,[17],0.32 µM
CC(C)=CCc1c(CCc2ccccc2)cc(O)c(O)c1O,ID50,[18],27 µg/mL
same,ID50,[6],2 µg/mL
CC(=O)O[C@H]1OC=C(CO)[C@@H]2[C@@H]3[C@H](CC[C@@]4(CO4)[C@H]12)C3(C)C,GI50,[19],6.1 µM
same,GI50,[20],4.8 µM
same,GI50,[21],8.7 µM
same,GI50,[22],6.4 µM
same,GI50,[23],9 µM
same,GI50,[24],3.8 µM
COc1cccc(CCc2ccc(O)cc2)c1,inhibition at 600 µg/mL,[25],85%
same,IC50,[26],130 µg/mL
CC1(C)[C@H]2C[C@H](OC(=O)/C=C/c3ccc(O)cc3)[C@]1(C)C[C@H]2O,IC50,[27],4.5 µg/mL
C=C(C=O)[C@@H]1[C@@H]2[C@H](CC[C@@]3(CO3)[C@@H]1C=O)C2(C)C,IC50,[28],6 µg/mL
same,IC50,[29],40 µg/mL
COc1ccc(CCc2cccc(OC)c2)cc1,inhibition at 700 µg/mL,[30],85%
C=CC(=C)CC[C@]1(C)[C@H]2CCC=C(C)[C@]2(C)CC[C@H]1C(=O)O,IC50,[28],0.07 µg/mL
same,IC50,[29],25 µg/mL
same,inhibition,[31],63%
same,inhibition,[32],32%
Oc1cc2ccc1Oc1cccc(c1)CCc1ccc(cc1)Oc1cc(ccc1O)CC2,MIC,[15],0.25 µg
same,MIC,[16],16 µg/mL
Oc1cc2cc(c1O)Oc1ccc(cc1)CCc1ccc(O)c(O)c1Oc1cccc(c1)CC2 [MARCHANTIN B],IC50,[10],3.2 µM
same,IC50,[5],55.9 µM
same,MID,[33],4 µg/mL
same,IC50,[34],5.3 µg/mL
same,IC50,[35],14.4 µM
Cc1cc2c(cc1O)[C@H](C)CC[C@@H]2C(C)C,IC50,[36],14.2 µg/mL
same,IC50,[37],0.9 µg/mL
same,IC50,[38],11.8 µg/mL
same,IC50,[39],10 µg/mL
same,IC50,[40],4.1 µg/mL
C=C1CC[C@H]2C(=C)CC[C@H]3C(=C)C(=O)O[C@@H]3[C@@H]12 [DEHYDROCOSTUSLACTONE],MIC,[41],0.5 µg/mL
same,MIC,[42],5 µg/mL
Oc1ccc2c(c1)CCc1ccc(cc1)Oc1cc(ccc1O)CCc1ccc-2c(O)c1 [RICCARDI C],IC50,[5],53.5 µM
same,MIC,[43],8 µg/mL
COc1ccc2c(c1)CCc1ccc(cc1)Oc1cc(ccc1O)CCc1ccc-2c(O)c1,inhibition,[44],4%
same,ID50,[45],20 µg/mL
Oc1cccc(CCc2ccc(Oc3cc(CCc4cccc(O)c4)ccc3O)cc2)c1,IC50,[46],18 µM
Oc1cc2cc(c1O)Oc1ccc(cc1)CCc1cccc(O)c1Oc1cccc(c1)CC2O (stereo not drawn),inhibition,[44],4%
same,IC50,[34],5.3 µg/mL
same,IC50,[35],14.4 µM
C=C(C)[C@H]1CC=C2C(=O)O[C@H]3C=C(C)[C@H](OO)[C@@H]1[C@@H]23,inhibition at 100 µg/mL,[47],50%
same,inhibition at 100 µg/mL,[48],93%
C=C1CC[C@H]2[C@@H]([C@H]3C(COC(C)=O)=CO[C@H](OC(C)=O)[C@@H]13)C2(C)C,inhibition at 100 µg/mL,[47],95%
same,inhibition at 50 µg/mL,[49],45%
same,inhibition at 100 µg/mL,[48],100%
